This test concerns the target T1, hsTRAAK (Homo sapiens, UniProt Q9NYG8).
T1 construct: expressed in transfected cells; host or cells: HEK293T
T1 sequence (Q9NYG8 1-393): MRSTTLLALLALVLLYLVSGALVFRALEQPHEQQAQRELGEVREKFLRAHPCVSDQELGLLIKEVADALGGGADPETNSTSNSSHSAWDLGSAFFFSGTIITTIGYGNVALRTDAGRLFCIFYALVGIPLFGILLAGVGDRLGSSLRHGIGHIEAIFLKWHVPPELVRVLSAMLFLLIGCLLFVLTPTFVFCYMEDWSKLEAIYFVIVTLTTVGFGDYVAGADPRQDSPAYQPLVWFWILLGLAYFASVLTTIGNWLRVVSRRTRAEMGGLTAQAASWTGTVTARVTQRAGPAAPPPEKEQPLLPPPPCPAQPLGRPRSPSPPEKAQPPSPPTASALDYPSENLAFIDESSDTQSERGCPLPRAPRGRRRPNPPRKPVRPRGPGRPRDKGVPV
As to the kind of experiment: Whole-cell recordings of TRAAK in cultured HEK293T cells, extracellular CBD. To be noted: 1 and 10 μM CBD, 0 mV. Type of test: cell-based. As for the experimental part:
For patch clamp recording from cultured cells, drTREK-1 or hsTRAAK genes were cloned into a modified pCEH vector to generate C-terminally EGFP-tagged constructs. HEK293T were cultured in DMEM (Gibco, Thermo Fisher Scientific) with 10% FBS and 100 U ml−1 penicillin and 100 μg ml−1 streptomycin. Trypsinized cells were deposited on 12-mm glass coverslips in a six-well dish one to two days before transfection. For transfection, drTREK-1 or hsTRAAK plasmids were mixed with FuGENE 6 in OptiMEM at a 1:3 ratio with 1 μg DNA per well per construct and applied to cells in growth medium with antibiotics. Patching was conducted from 24 to 60 h post-transfection. Coverslips were placed in a perfusion chamber at room temperature in isotonic bath solution: 135 mM NaCl, 15 mM KCl, 1 mM CaCl2, 1 mM MgCl2, 10 mM HEPES, adjusted to a final pH of 7.5 with NaOH. Cells were chosen by a combination of the presence GFP fluorescence and cell morphology consistent with healthy interphase cells. […]
Patches were evaluated with voltage-step protocols to confirm TRAAK expression and minimal non-specific leak based on reversal potential. Currents were recorded using an Axopatch 200B amplifier (Molecular Devices) at a bandwidth of 1 kHz and digitized with an Digidata 1550B (Molecular Devices) at 100–500 kHz using pClamp10.7 software. […] Data were analyzed using Clampfit 10.7, Excel, and Graphpad Prism software. […]

On to `C=C(C)[C@@H]1CCC(C)=C[C@H]1c1c(O)cc(CCCCC)cc1O` [CBD, Cannabidiol], for which the “inhibition of TRAAK by extracellular CBD” value is recorded as “strongly inhibited”.
